Data on 6 compounds can be found in ChEMBL document CHEMBL1140088, “N9-substituted 2,4-diaminoquinazolines: synthesis and biological evaluation of lipophilic inhibitors of pneumocystis carinii and toxoplasma gondii dihydrofolate reductase” (J Med Chem, 2008).

Experiment [1] has as its target T1, Bifunctional dihydrofolate reductase-thymidylate synthase (Toxoplasma gondii, UniProt Q07422).
T1 sequence (Q07422 whole entry): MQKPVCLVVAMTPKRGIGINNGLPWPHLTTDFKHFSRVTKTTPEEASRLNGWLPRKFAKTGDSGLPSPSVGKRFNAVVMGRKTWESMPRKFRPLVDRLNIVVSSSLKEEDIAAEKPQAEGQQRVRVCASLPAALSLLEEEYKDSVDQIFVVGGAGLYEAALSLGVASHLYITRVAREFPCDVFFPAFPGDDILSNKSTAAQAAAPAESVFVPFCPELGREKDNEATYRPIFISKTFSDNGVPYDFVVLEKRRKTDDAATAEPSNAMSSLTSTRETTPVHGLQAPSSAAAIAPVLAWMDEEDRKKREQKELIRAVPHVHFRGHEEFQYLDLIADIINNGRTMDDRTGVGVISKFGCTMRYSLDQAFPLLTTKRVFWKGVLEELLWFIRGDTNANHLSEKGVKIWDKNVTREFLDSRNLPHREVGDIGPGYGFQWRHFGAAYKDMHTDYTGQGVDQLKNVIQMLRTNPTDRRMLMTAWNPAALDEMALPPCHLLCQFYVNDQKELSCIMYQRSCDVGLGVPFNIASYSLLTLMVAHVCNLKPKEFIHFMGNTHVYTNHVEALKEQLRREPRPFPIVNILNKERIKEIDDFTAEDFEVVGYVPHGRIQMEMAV
Description: Inhibition of Toxoplasma gondii dihydrofolate reductase

For experiment [2], the target named is T2, Dihydrofolate reductase (Rattus norvegicus, UniProt Q920D2).
T2 sequence (Q920D2 whole entry): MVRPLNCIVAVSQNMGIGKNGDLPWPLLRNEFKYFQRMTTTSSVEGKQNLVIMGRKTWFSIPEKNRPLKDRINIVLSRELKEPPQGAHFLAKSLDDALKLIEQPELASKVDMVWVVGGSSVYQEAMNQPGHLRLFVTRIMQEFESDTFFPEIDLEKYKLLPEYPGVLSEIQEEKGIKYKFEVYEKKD
Description: Inhibition of rat liver dihydrofolate reductase

In experiment [3] the target is T3, Dihydrofolate reductase (Pneumocystis carinii, UniProt P16184).
T3 sequence (P16184 whole entry): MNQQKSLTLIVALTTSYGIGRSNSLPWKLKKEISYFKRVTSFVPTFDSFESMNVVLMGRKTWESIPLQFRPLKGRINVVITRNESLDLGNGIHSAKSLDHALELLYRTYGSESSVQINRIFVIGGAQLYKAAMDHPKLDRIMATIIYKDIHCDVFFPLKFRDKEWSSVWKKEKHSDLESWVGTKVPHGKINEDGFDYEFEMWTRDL
Description: Inhibition of Pneumocystis carinii dihydrofolate reductase

For experiment [4], the target named is T4, Dihydrofolate reductase (Mycobacterium avium, UniProt O30463).
T4 sequence (O30463 whole entry): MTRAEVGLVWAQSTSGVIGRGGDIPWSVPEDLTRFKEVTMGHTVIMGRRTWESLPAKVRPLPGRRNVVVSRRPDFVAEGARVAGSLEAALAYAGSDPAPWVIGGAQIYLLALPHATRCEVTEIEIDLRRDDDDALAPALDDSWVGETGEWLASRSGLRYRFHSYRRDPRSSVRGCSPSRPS
Nature of the experiment: Inhibition of Mycobacterium avium dihydrofolate reductase.

For `CCN(Cc1ccccc1)c1ccc2nc(N)nc(N)c2c1`, the IC50 is 3.6 nM in experiment [1], 4.1 nM on Dihydrofolate reductase [2] and 21 nM on Dihydrofolate reductase [3].

Turning to `CCN(Cc1ccc2ccccc2c1)c1ccc2nc(N)nc(N)c2c1`, the IC50 in experiment [1] was found to be 12 nM; on Dihydrofolate reductase [2], 14.5 nM; against Dihydrofolate reductase [3] it was 7.2 nM; against Dihydrofolate reductase [4], 2.3 nM.

Take `CCN(Cc1cc(OC)ccc1OC)c1ccc2nc(N)nc(N)c2c1`: the IC50 was determined as 3.7 nM in experiment [1], 4.8 nM against Dihydrofolate reductase [2], 9.9 nM at Dihydrofolate reductase [3] and 0.98 nM against Dihydrofolate reductase [4].

For the compound `CCCN(Cc1cc(OC)ccc1OC)c1ccc2nc(N)nc(N)c2c1`, the IC50 in experiment [1] is 9.5 nM; at Dihydrofolate reductase [2] it was 5.3 nM; on Dihydrofolate reductase [3] it was 38 nM; at Dihydrofolate reductase [4], 3.3 nM.

Turning to `CCN(Cc1cc(Cl)cc(Cl)c1Cl)c1ccc2nc(N)nc(N)c2c1`, the IC50 in experiment [1] was 19 nM; at Dihydrofolate reductase [2], 19 nM; at Dihydrofolate reductase [3], 6.9 nM; against Dihydrofolate reductase [4], 14 nM.

Turning to `CCN(Cc1cccc2ccccc12)c1ccc2nc(N)nc(N)c2c1`, the IC50 amounted to 7.8 nM in experiment [1], 6.5 nM on Dihydrofolate reductase [2], 2.5 nM on Dihydrofolate reductase [3] and 2.9 nM against Dihydrofolate reductase [4].

For orientation: IC50 means the concentration needed to halve the response being measured. Lower therefore signals higher potency.
